According to article PMC8421423, “Cellular model system to dissect the isoform-selectivity of Akt inhibitors” (Nature Communications, 2021):
Values joined by “and” are separate entries in the source; they are usually repeats but may differ in a detail not shown here. Identical values can stand only once. Like-named read-outs stand apart in the source and are kept apart here.

What was measured:
parental Ba/F3 cells = assay: CellTiter-Glo cell viability assay; type: cell-based, murine
Method: (§1) On day 0, cells were plated into white 384-well cell culture plates (Greiner Bio-One) using a Multidrop reagent dispenser (Thermo Fisher Scientific) at cell numbers that ensure linear and optimal luminescent signal intensity (Ba/F3myr-Akt1: 600 cells/well, Ba/F3myr-Akt2: 800 cells/well, Ba/F3myr-Akt3: 800 cells/well). […] Cell viability was analyzed on day 4 using the CellTiter-Glo Assay (Promega) as per the manufacturer’s instructions. […] All experimental points were measured in duplicates for each plate and were replicated in at least three plates.

Ba/F3^myr-Akt1 cells = assay: CellTiter-Glo cell viability assay; details: for Log ratio EC50 [Akt] / EC50 [Akt], Akt1 / Akt2: cell viability assay Ba/F3 myr-Akt cells, log units
Method: as §1

Ba/F3^myr-Akt2 cells = assay: CellTiter-Glo cell viability assay
Method: as §1

Ba/F3^myr-Akt3 cells = assay: CellTiter-Glo cell viability assay; details: for Log ratio EC50 [Akt] / EC50 [Akt], Akt3 / Akt2: cell viability assay Ba/F3 myr-Akt cells, log units
Method: as §1

Akt1 = Akt1 (Homo sapiens, UniProt P31749); assay: STK HTRF KinEASE activity-based assay (IC50); details: for Log ratio IC50 [Akt] / IC50 [Akt], Akt1 / Akt2: biochemical activity based assay, log units
Chain of Akt1 (P31749 whole entry): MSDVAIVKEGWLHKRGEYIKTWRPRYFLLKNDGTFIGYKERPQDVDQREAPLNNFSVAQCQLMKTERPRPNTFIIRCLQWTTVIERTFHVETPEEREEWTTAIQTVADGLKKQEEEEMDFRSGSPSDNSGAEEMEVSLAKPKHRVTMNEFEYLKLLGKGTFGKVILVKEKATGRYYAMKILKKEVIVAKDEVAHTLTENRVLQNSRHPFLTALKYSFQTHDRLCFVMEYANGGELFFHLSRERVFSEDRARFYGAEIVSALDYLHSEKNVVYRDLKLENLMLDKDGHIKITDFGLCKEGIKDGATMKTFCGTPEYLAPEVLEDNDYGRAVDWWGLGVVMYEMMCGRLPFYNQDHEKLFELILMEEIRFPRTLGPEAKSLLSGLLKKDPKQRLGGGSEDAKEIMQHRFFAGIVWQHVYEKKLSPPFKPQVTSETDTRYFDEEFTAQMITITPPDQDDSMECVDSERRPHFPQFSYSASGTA

Akt2 = Akt2 (Homo sapiens, UniProt P31751); assay: STK HTRF KinEASE activity-based assay (IC50)
Chain of Akt2 (P31751 whole entry): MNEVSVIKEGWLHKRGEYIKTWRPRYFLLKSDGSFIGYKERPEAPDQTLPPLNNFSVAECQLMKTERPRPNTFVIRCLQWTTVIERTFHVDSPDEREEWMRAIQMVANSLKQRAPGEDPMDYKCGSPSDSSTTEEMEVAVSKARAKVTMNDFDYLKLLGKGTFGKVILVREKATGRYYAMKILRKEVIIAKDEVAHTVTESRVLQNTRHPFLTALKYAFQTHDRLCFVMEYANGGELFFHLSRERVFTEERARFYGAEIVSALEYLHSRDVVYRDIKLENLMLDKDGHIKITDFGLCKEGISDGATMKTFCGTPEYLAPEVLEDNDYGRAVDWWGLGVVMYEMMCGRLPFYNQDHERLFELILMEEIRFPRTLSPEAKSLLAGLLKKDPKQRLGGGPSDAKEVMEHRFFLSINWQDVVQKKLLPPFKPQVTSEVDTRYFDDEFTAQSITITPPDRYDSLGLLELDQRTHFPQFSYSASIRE

Akt3 = Akt3 (Homo sapiens, UniProt Q9Y243); assay: STK HTRF KinEASE activity-based assay (IC50)
Chain of Akt3 (Q9Y243 whole entry): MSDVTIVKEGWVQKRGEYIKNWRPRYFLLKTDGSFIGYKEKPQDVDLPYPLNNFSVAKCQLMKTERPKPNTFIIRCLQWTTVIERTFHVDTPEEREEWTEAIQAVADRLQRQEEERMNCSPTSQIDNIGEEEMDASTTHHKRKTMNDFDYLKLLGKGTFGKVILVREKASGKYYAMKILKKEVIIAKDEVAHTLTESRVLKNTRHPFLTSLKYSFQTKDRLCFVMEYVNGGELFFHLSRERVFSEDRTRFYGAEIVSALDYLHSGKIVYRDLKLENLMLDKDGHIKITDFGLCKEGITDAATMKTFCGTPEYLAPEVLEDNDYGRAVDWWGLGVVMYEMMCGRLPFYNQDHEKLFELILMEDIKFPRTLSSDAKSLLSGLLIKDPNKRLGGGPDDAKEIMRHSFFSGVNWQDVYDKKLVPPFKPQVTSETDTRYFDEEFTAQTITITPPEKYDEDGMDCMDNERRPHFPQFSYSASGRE
Method: The biochemical half maximal inhibitory concentrations (IC50) were determined with the STK HTRF KinEASE assay (Cisbio) according to the manufactor’s instructions. Briefly: 5 µL Kinase solution and 2.5 µL inhibitor solution (8% DMSO in HTRF buffer) were incubated for 1 h before the reaction was started by addition of 2.5 µL starting solution containing ATP and substrate peptide. […] After reaction completion (Akt1: 60 min, Akt2: 20 min, Akt3: 15 min), 10 µL of stop solution were added. […] The quotient of both intensities were recorded at eight different inhibitor concentrations and data fit to a Hill 4-parameter equation with Quattro software suite (Quattro Research GmbH, Martinsried, Germany). Each reaction was performed in duplicates and at least three independent determinations of each IC50 were made.

[1] = Mus musculus, BaF3, parental cells, mean of replicates, read-out: CTG BaF3, Mean
[2] = Mus musculus, BaF3, parental cells, single replicates, read-out: CTG BaF3, individual determinations
[3] = parental cells, single replicates, read-out: CTG BaF3, individual determinations
[4] = Mus musculus, read-out: CTG BaF3myr-Akt1, Mean, mean of replicates
[5] = read-out: CTG BaF3myr-Akt1, individual determinations, single replicates
[6] = Mus musculus, read-out: CTG BaF3myr-Akt2, Mean, mean of replicates
[7] = read-out: CTG BaF3myr-Akt2, individual determinations, single replicates
[8] = Mus musculus, read-out: CTG BaF3myr-Akt3, Mean, mean of replicates
[9] = read-out: CTG BaF3myr-Akt3, individual determinations, single replicates
[10] = HTRF IC50 Akt1, Mean, mean of replicates
[11] = HTRF IC50 Akt1, individual determinations, single replicates
[12] = IC50 Akt1, HTRF, ATP at KM, 1 h preincubation
[13] = HTRF IC50 Akt2, Mean, mean of replicates
[14] = HTRF IC50 Akt2, individual determinations, single replicates
[15] = IC50 Akt2, HTRF, ATP at KM, 1 h preincubation
[16] = HTRF IC50 Akt3, Mean, mean of replicates
[17] = HTRF IC50 Akt3, individual determinations, single replicates
[18] = IC50 Akt3, HTRF, ATP at KM, 1 h preincubation
[19] = Mus musculus, read-out: CTG BaF3myr-Akt1, individual determinations, single replicates
[20] = Mus musculus, read-out: CTG BaF3myr-Akt2, individual determinations, single replicates
[21] = Mus musculus, read-out: CTG BaF3myr-Akt3, individual determinations, single replicates
[22] = Mus musculus, read-out: EC50 BaF3myr-Akt1, CTG

SMILES | EC50 (parental Ba/F3 cells; [2]) [µM] | EC50 (parental Ba/F3 cells; [3]) | EC50 (Ba/F3^myr-Akt1 cells; [4]) [µM] | Log ratio EC50 [Akt] / EC50 [Akt], Akt1 / Akt2 (Ba/F3^myr-Akt1 cells) | EC50 (Ba/F3^myr-Akt1 cells; [5]) | EC50 (Ba/F3^myr-Akt2 cells; [6]) [µM] | EC50 (Ba/F3^myr-Akt2 cells; [7]) | EC50 (Ba/F3^myr-Akt3 cells; [8]) [µM] | Log ratio EC50 [Akt] / EC50 [Akt], Akt3 / Akt2 (Ba/F3^myr-Akt3 cells) | EC50 (Ba/F3^myr-Akt3 cells; [9]) | IC50 (Akt1; [10]) [µM] | IC50 (Akt1; [11]) | IC50 (Akt1; [12]) [µM] | Log ratio IC50 [Akt] / IC50 [Akt], Akt1 / Akt2 (Akt1) | IC50 (Akt2; [13]) [µM] | IC50 (Akt2; [14]) | IC50 (Akt2; [15]) [µM] | IC50 (Akt3; [16]) [µM] | IC50 (Akt3; [17]) | IC50 (Akt3; [18]) [µM] | also measured
C=CC(=O)Nc1ccc2[nH]c(=O)n(C3CCN(Cc4ccc(-c5ncc(C(=O)Nc6ccccn6)cc5-c5ccccc5)cc4)CC3)c2c1 [compound 23] | > 30 | > 30 µM | 14.6 | 0.72 | 8.09 µM and 10.5 µM and 25.3 µM | 2.76 | 4.03 µM and 2.63 µM and 1.62 µM | 17.1 | -0.79 | 9.71 µM and 24.4 µM and 23.9 µM | 0.13 | 0.128 µM and 0.117 µM and 0.144 µM | 0.13 ± 0.011 | -0.07 | 0.152 | 0.117 µM and 0.167 µM and 0.17 µM | 0.151 ± 0.025 | 6.3 | 3.66 µM and 8.18 µM and 7.06 µM | 6.3 ± 1.92 | EC50 (parental Ba/F3 cells; Mus musculus, BaF3, CTG, parental BaF3 cell line, read-out: EC50 BaF3): > 30 µM; EC50 (parental Ba/F3 cells; [1]): > 30 µM
C=CC(=O)Nc1ccc2[nH]c(=O)n(C3CCN(Cc4ccc(-c5ncc(Cc6cnn(C)c6)cc5-c5ccccc5)cc4)CC3)c2c1 [compound 12] | 17.5 | > 30 µM and 26.7 µM | 8.29 | 0.43 | 10.1 µM and 7.32 µM | 3.05 | 2.1 µM and 3.52 µM | 5.29 | -0.24 | 9.47 µM and 3.28 µM and 3.12 µM | 1.28 | 1.29 µM (2×) and 1.26 µM | 1.28 ± 0.018 | 0.71 | 0.251 | 0.27 µM and 0.352 µM and 0.233 µM | 0.251 ± 0.018 | 0.607 | 0.64 µM and 0.477 µM and 0.703 µM | 0.607 ± 0.095 | EC50 (Ba/F3^myr-Akt1 cells; [19]): 7.5 µM; EC50 (Ba/F3^myr-Akt2 cells; [20]): 3.04 µM
C=CC(=O)Nc1ccc2[nH]c(=O)n(C3CCN(Cc4ccc(-c5ncc(Cc6ccc(N)cc6)cc5-c5ccccc5)cc4)CC3)c2c1 [compound 19] | – | 6.98 µM and 7.49 µM and 18.8 µM | 12.7 | 0.64 | 19.7 µM and 8.66 µM and 9.89 µM | 2.89 | 3.83 µM and 2.66 µM | 7.44 | -0.41 | 7.03 µM and 8.07 µM | 1.8 | 1.9 µM and 1.84 µM and 1.65 µM | 1.8 ± 0.105 | 0.55 | 0.511 | 0.523 µM and 0.43 µM and 0.581 µM | 0.511 ± 0.062 | 1.51 | 2.03 µM and 1.41 µM and 1.09 µM | 1.51 ± 0.389 | EC50 (parental Ba/F3 cells; [1]): 12.5 µM; EC50 (Ba/F3^myr-Akt2 cells; [20]): 2.19 µM; EC50 (Ba/F3^myr-Akt3 cells; [21]): 6.61 µM; loss of potency of the anilinic CAAI (Akt3; Akt3, biochemical IC50): 10 fold
C=CC(=O)Nc1ccc2[nH]c(=O)n(C3CCN(Cc4ccc(-c5ncc(C(=O)N6CCCC6)cc5-c5ccccc5)cc4)CC3)c2c1 [compound 8] | 17.3 | 20.7 µM and > 30 µM | > 30 | 0.37 | > 30 µM | 12.8 | 12.4 µM and 14.1 µM | 26.5 | -0.32 | 28.3 µM and 27 µM | 4.57 | 4.34 µM and 4.53 µM and 4.82 µM | 4.57 ± 0.197 | 0.34 | – | 1.92 µM and 4.34 µM and 2.21 µM | 2.07 ± 0.147 | > 20 | > 20 µM | > 20 | EC50 (Ba/F3^myr-Akt1 cells; [19]): > 30 µM; EC50 (Ba/F3^myr-Akt1 cells; [22]): > 30 µM; EC50 (Ba/F3^myr-Akt2 cells; [20]): 11.8 µM; EC50 (Ba/F3^myr-Akt3 cells; [21]): 23.6 µM; drop in affinity of the amide-linked version (7 vs. 8) (Akt2; Akt2, biochemical IC50): 5 fold; IC50 (Akt3; read-out: HTRF IC50 Akt3, individual determinations, single replicates): > 20 µM
C=CC(=O)Nc1ccc2[nH]c(=O)n(C3CCN(Cc4ccc(-c5ncc(CNCC(C)C)cc5-c5ccccc5)cc4)CC3)c2c1 [compound 9] | > 30 | 28.5 µM and > 30 µM | > 30 | 0.34 | > 30 µM | 13.6 | 12.5 µM | 14.1 | -0.02 | 18.6 µM and 9.33 µM and 12.7 µM | 5.93 | 6.84 µM and 5.56 µM and 5.38 µM | 5.93 ± 0.793 | 0.15 | 4.21 | 4.62 µM and 3.65 µM and 4.37 µM | 4.21 ± 0.412 | 8.37 | 6.9 µM and 10.4 µM and 7.86 µM | 8.37 ± 1.78 | EC50 (Ba/F3^myr-Akt1 cells; [19]): > 30 µM; EC50 (Ba/F3^myr-Akt1 cells; [22]): > 30 µM; EC50 (Ba/F3^myr-Akt2 cells; [20]): 17.2 µM; EC50 (Ba/F3^myr-Akt3 cells; [21]): 15.9 µM
